Data taken from PubChem BioAssay AID449745 (Broad Institute, 2010).
Inconclusive results are not listed. The source made the active and inactive calls. The rule behind the calls is not given here.

Target: Zinc finger protein mex-5 (Caenorhabditis elegans) (UniProt Q9XUB2)
Assay: retest of MEX-5 TCR-2 binding inhibitors, confirmation, biochemical, C. elegans, fluorescence polarization, dose retest (AID 449745);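 note: potency is for blocking Mex-5 binding to labeled TCR2 RNA like unlabeled competitor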
Details: Mex-5 / TCR-2 RNA binding

Zinc finger protein mex-5 (Caenorhabditis elegans), sequence (Q9XUB2 whole entry, looked up): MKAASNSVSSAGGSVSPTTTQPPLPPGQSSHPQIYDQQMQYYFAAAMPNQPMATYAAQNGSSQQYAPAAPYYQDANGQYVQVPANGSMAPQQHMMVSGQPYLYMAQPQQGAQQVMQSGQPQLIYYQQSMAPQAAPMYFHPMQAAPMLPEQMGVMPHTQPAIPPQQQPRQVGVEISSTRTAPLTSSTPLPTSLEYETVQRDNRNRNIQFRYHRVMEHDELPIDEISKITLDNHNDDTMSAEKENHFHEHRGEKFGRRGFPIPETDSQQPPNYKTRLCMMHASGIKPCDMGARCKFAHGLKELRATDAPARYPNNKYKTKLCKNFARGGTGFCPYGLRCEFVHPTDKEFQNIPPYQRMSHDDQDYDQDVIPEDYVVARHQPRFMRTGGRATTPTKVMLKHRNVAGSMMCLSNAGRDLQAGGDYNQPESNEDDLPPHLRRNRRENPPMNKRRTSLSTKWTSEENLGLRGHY

| Structure (SMILES) | AC50 |
| --- | --- |
| CCN(CC)C(=O)Cn1c(=O)c2ccccc2n2c(=S)sc(-c3cccc(C)c3)c12 | 17.2 µM |
| NC(=S)NNc1cccc2cccnc12 | 0.987 µM |
| O=C(CSc1ncn[nH]1)Nc1c(Br)cc([N+](=O)[O-])cc1Br | 14 µM |
| CC(C)CN1CCN(Cc2cccc3ncccc23)CC1CCO (stereo not drawn) | > 38 µM (inactive) |
| CC(C(=O)Nc1ccc(C(=O)O)c(O)c1)N1C(=O)/C(=C\c2ccco2)SC1=S (stereo not drawn) | 19 µM |
| Cc1ccc(/C=C2/NC(=O)N(Cc3ccccc3)C2=O)s1 | > 38 µM (inactive) |
| CC1CN(c2nc3ccccc3nc2C(C#N)C(=O)NCc2ccc3c(c2)OCO3)CC(C)O1 (stereo not drawn) | 23.8 µM |
| CN(C)c1ccc(N=Cc2nc(-c3ccccc3)oc2OC(=O)c2cccc(Br)c2)cc1 | > 38 µM (inactive) |
| COc1ccc(N=Nc2nc3ccc(Br)cc3n2C)cc1 | 34.9 µM |
| CCOC(=O)C1=C(C)N=c2s/c(=C\c3cccn3C)c(=O)n2C1c1cccc(OC)c1OC (stereo not drawn) | 13.8 µM |
| CCc1cc[n+](-c2nc3ccccc3nc2[N-]S(=O)(=O)c2ccc(Br)s2)cc1 | 4.86 µM |
| O=C(CN1C(=O)/C(=C/c2ccco2)SC1=S)Nc1ccc(C(=O)O)c(O)c1 | 24.5 µM |
| COc1ccc2cc(/C=C3\SC(=S)NC3=O)c(N3CCOCC3)nc2c1 | 24.1 µM |
| Cc1oc2c(cc(NS(=O)(=O)c3ccc(C(C)C)cc3)c3ccccc32)c1C(=O)O | 5.37 µM |
| Brc1ccc(C2=CC(c3cccs3)n3ncnc3N2)cc1 (stereo not drawn) | 15.8 µM |
| CCCN1CCN(S(=O)(=O)c2cn(C)nc2C)CC1 | 39.9 µM |
| N#CC1=C(N)N2C(=C(C#N)C1c1ccccc1)Sc1ccccc12 (stereo not drawn) | 5.23 µM |
| CCOC(=O)c1ccc(N=Nc2c(C)c(C#N)c(O)[nH]c2=O)cc1 | 13.3 µM |
| COc1ccc(N(C(=O)CCl)C(C)(C(=O)Nc2c(C)cccc2C)c2ccccn2)cc1 (stereo not drawn) | > 38 µM (inactive) |
| COCCCNC(=O)c1ccc2c3c(onc13)-c1ccccc1C2=O | < 0.3 µM |
| Cc1cc(C)c2c3c(sc2n1)C(c1ccccc1)C(C#N)=C(N)O3 (stereo not drawn) | > 38 µM (inactive) |
| O=C1CS/C(=N\NC(=O)c2ccccc2)N1 | 12 µM |
| N#C/C(=C\c1cccc([N+](=O)[O-])c1)c1nnc2n1CCCCC2 | > 38 µM (inactive) |
| COCC1CCN(Cc2c(C(=O)N3CCc4ccccc4C3)nc3ccc(Cl)cn23)C1 (stereo not drawn) | 21.5 µM |
| Cc1[nH][nH]c(=O)c1C(c1ccc(O)c([N+](=O)[O-])c1)c1c(C)[nH][nH]c1=O | 8.52 µM |
| Cc1nn2c(N)csc2nc1=O | 30 µM |

| Structure (SMILES) | AC50 |
| --- | --- |
| Cc1cccc2cc3c(N)c(C(=O)N4CCCc5ccccc54)sc3nc12 | 19.9 µM |
| O=c1ccc2cc3c([nH]c4ccc(Br)cc43)oc-2c1O | 3.77 µM |
| CCOC(=O)C1CCN(c2nc3ccccc3nc2C(C#N)C(=O)OC(C)C)CC1 (stereo not drawn) | > 38 µM (inactive) |
| O=C1c2cccc3c(N4CCCCC4)ccc(c23)C(=O)N1c1ccccc1O | 28.7 µM |
| O=C(C[n+]1ccc(C(=O)N/N=C/c2ccc(OCc3ccccc3)cc2)cc1)c1ccccc1 | 18.7 µM |
| O=C(/C=C/Nc1ccc(S(=O)(=O)Nc2cnc3ccccc3n2)cc1)c1ccccc1 | > 38 µM (inactive) |
| O=C1c2ccccc2C(=O)N1/N=C/c1ccc(O)c(O)c1O | 0.798 µM |
| CCOc1cc(/C=C2\C(=O)N(c3cccc(C(=O)O)c3)N=C2C(F)(F)F)ccc1OCC(=O)Nc1ccccc1OC | 8.68 µM |
| O=c1[nH][nH]c2cc(=O)n(-c3cccc(C(F)(F)F)c3)nc12 | 20.3 µM |
| S=c1[nH]cnc2sc(Nc3ccccc3)nc12 | 27.4 µM |
| CN1CCN(c2ccc([N+](=O)[O-])c3no[n+]([O-])c23)CC1 | 33.4 µM |
| Cc1ccc(O)c(C(=O)c2cc(C#N)c(=O)n(-c3nccs3)c2)c1 | 14.2 µM |
| O=c1[nH]c(-[n+]2ccccc2)c(/C=N/NC([S-])=Nc2ccccc2)s1 | 15.1 µM |
| Cc1ccc(C)n1C(Cc1ccccc1)C(=O)O (stereo not drawn) | 8.84 µM |
| O=C(Cc1cccs1)Nc1nnc(SCc2ccc(Br)cc2)s1 | > 38 µM (inactive) |
| CN1C(=O)/C(=C/c2cn(CC(=O)N3CCCCC3)c3ccccc23)c2ccccc21 | > 38 µM (inactive) |
| O=S(=O)(O)c1cccc2c(N=Nc3ccc(O)c4ncccc34)cccc12 | 3.04 µM |
| CN(C)c1ccc(C(c2nnnn2CCOC(=O)Nc2ccc(Cl)cc2)N2CCOCC2)cc1 (stereo not drawn) | > 38 µM (inactive) |
| CCOC(=O)c1c(NS(=O)(=O)c2ccccc2)n(CCCOC)c2nc3ccccc3nc12 | > 38 µM (inactive) |
| Cc1cc(/C=C2\C(=O)NC(=O)N(Cc3ccccc3)C2=O)c(C)n1-c1ccc(Cl)c(C(=O)O)c1 | 33.2 µM |
| O=C1C(Cl)=C(NC(=O)c2ccccc2)C(=O)C(Cl)=C1NC(=O)c1ccccc1 | < 0.3 µM |
| CC1(OC(=O)c2ccc(Cl)nc2)C(=O)C=C2C=C(c3ccc(C#N)cc3)OC=C2C1=O (stereo not drawn) | 20 µM |
| O=c1cc[nH]c2c1ccc1c(=O)cc[nH]c12 | 25 µM |
| CN1C(=O)/C(=C/c2ccco2)SC1=Nc1cccc(C(=O)O)c1 | > 38 µM (inactive) |
| CN1CC=C2C(C#N)=C(N)C(C#N)(C#N)[C@H](c3ccoc3)[C@H]2C1 | 32.4 µM |
| CCOC(=O)c1cc(C#N)c(SCC(N)=O)[nH]c1=O | > 38 µM (inactive) |

| Structure (SMILES) | AC50 |
| --- | --- |
| Cc1cc2n(n1)C(c1c[nH]c3ccccc13)Nc1ccccc1-2 (stereo not drawn) | > 38 µM (inactive) |
| O=C1OC(/C(=C\Nc2cc(Cl)ccc2O)[N+](=O)[O-])c2ccccc21 (stereo not drawn) | 12.4 µM |
| CCN(CC)c1ccc2cc(S(=O)(=O)c3ccc(C)cc3)c(=O)oc2c1 | 11.5 µM |
| Cn1c(=O)c2[nH]c(-c3ccccc3)c(O)c2n(C)c1=O | 0.895 µM |
| Cc1cc(O)c(-c2cc(O)c(C)cc2O)cc1O | 6.21 µM |
| COc1cccc(CN2C(=O)c3cccc(N)c3C2=O)c1 | 32 µM |
| CCc1ccc[n+](-c2[nH]c(=O)sc2/C=N/NC([S-])=Nc2ccccc2)c1 | 4.63 µM |
| CCCCOc1ccc(-c2cc(C(F)(F)F)c(C#N)c(SCC(=O)O)n2)cc1 | 11.8 µM |
| COc1cccc(/C(O)=C/c2nc3ccc(C(=O)NCCc4ccc(Cl)cc4)cc3[nH]c2=O)c1 | 23.3 µM |
| O=c1cc2c(=O)oc3cc(O)c(O)oc3c2c(O)c1O | 3 µM |
| O=C(O)c1ccc(NS(=O)(=O)c2ccc3c(c2)C(=O)c2ccccc2C3=O)cc1 | 28.4 µM |
| COc1ccc(Cn2c(O)c(/C=N/NC(=O)c3ccccc3O)c(=O)[nH]c2=O)cc1 | 6.41 µM |
| CC1(C)CC(=O)C2=C(C1)N=c1s/c(=C/c3ccc(F)c(F)c3)c(=O)n1C2c1ccc(F)cc1 (stereo not drawn) | > 38 µM (inactive) |
| O=C(Nc1ccc(S(=O)(=O)Nc2nccs2)cc1)c1ccc(N2C(=O)c3ccccc3C2=O)cc1 | > 38 µM (inactive) |
| Nc1ccc2nc(CN3CCOCC3)[nH]c2c1 | 34.4 µM |
| COc1ccc(C(=O)C/C(=C\C(=O)c2ccc(C)cc2)c2ccccc2)cc1 | > 38 µM (inactive) |
| Cc1cccc(-n2c(O)c(C=Nc3ccc4c(c3)OCO4)c3ccccc3c2=O)n1 | 39 µM |
| Cc1cccc(-n2c(O)c(/C=N/Nc3nc4c(c(=O)n(C)c(=O)n4C)n3C)c(=O)[nH]c2=S)c1 | 7.45 µM |
| CC/C(=N/Nc1cccc(C)c1)c1cnnc(SC)n1 | > 38 µM (inactive) |
| Cc1nc2ccccc2n1/N=C/c1ccc([N+](=O)[O-])s1 | > 38 µM (inactive) |
| CC1=NOC(=O)/C1=C/c1ccc2c(c1)OCO2 | > 38 µM (inactive) |
| Cc1ccccc1Nc1cc2ccccc2c(=O)[nH]1 | 14.3 µM |
| CC1CCN(Cc2c(O)ccc3c2O/C(=C\c2ccco2)C3=O)CC1 | 6.87 µM |
| CCCCCCNC(=O)C(C#N)c1nc2ccccc2nc1N1CCOCC1 (stereo not drawn) | 13.3 µM |
| CC1=C(C#N)c2nc(N)c(C#N)c(C)c2/C1=C\c1ccc(-c2ccccc2C(=O)O)o1 | 17.9 µM |
| O=C(N/N=C/c1cc2c(cc1Cl)OCO2)c1ccccn1 | > 38 µM (inactive) |

| Structure (SMILES) | AC50 |
| --- | --- |
| Cc1cccc(C)c1NC(=O)/C(C#N)=C/c1ccc(-c2ccc(C(=O)O)cc2)o1 | > 38 µM (inactive) |
| CCOc1cc(Br)c(/C=C2/C(=O)N(C)C(=S)N2CC(=O)OC)cc1OC | > 38 µM (inactive) |
| COc1ncnc2c1N=C1CC(C)(C)CC(N)=C1S2 | 19.6 µM |
| Cc1ccc(S(=O)(=O)N/N=C/c2ccc(O)c(O)c2)cc1[N+](=O)[O-] | 27 µM |
| Nc1c(C(=O)C2CC2)sc2nc(-c3cccs3)cc(C(F)(F)F)c12 | > 38 µM (inactive) |
| O=C(Cc1c(O)c2ccccc2oc1=O)c1ccc(C(F)(F)F)cc1 | 37.5 µM |
| CCOC(=O)c1c(-c2ccc(C)o2)csc1NC(=S)NC(=O)c1cccs1 | > 38 µM (inactive) |
| Cc1c(C(=O)NNC(=S)Nc2ccc(S(N)(=O)=O)cc2)oc2ccccc12 | 12.1 µM |
| COc1ccc(/C=C2\C(=O)NC(=S)N2C(=O)c2ccc(C)cc2)cc1 | > 38 µM (inactive) |
| O=C(C1=NN(c2ccccc2)C2C(=O)N(c3ccccc3)C(=O)C12)c1ccccc1 (stereo not drawn) | 32 µM |
| CCn1c(SCc2nc3sc(C(=O)O)c(C)c3c(=O)[nH]2)nc2ccccc21 | 13 µM |
| CNC(=O)c1c(NC(=O)c2ccc(S(=O)(=O)N(C)c3ccccc3)cc2)sc2c1CCN(C(C)C)C2 | 25.2 µM |
| Cc1ccnc(N2C(=O)c3cccc4c([N+](=O)[O-])ccc(c34)C2=O)c1 | 14.8 µM |
| CCc1ccc(N2C(=O)NC(=O)/C(=C\c3cccn3CCOc3ccc(C(C)C)cc3)C2=O)cc1 | > 38 µM (inactive) |
| CN(C)[C@@H]1C(=O)C(C(N)=O)=C(O)[C@@]2(O)C(=O)C3=C(O)c4c(O)cccc4[C@@](C)(O)[C@H]3[C@H](O)[C@@H]12 | 12 µM |
| CCCCCC#CCC#CCC#CCC#CCCCC(=O)O | 6.71 µM |
| O=C(c1nc2ccc(Cl)cn2c1CN1CCC[C@H]1CO)N1CCCCCCC1 | 27.3 µM |
| Cc1ccc(C(=O)O)cc1N1C(=O)c2cccc3c([N+](=O)[O-])ccc(c23)C1=O | 25.6 µM |
| CCOC(=O)c1ccc(-c2ccc(/C=C(\C#N)C(=O)NCC3CCCO3)o2)cc1 (stereo not drawn) | > 38 µM (inactive) |
| CC(=Nc1ccc(C)cc1C)c1sc2ccccc2c1O | 37.2 µM |
| CCOC(=O)C(=NC(C)C)NNc1cc(Cl)ccc1Cl | > 38 µM (inactive) |
| Oc1ccc(Br)cc1C=Nc1cccn2cc(-c3ccccc3)nc12 | > 38 µM (inactive) |
| NS(=O)(=O)c1ccc(N=Nc2c(=O)[nH]n3c(=O)c4c([nH]c23)CCCC4)cc1 | < 0.3 µM |
| O=C1CCNc2ccc(-c3ccccc3)cc21 | 4.42 µM |
| COc1ccc(OC)c(N2C(=O)NC(=O)/C(=C/c3ccc([N+](=O)[O-])s3)C2=O)c1 | 22 µM |
